Measurements as given in US12077503B2, “Substituted cyclic amides and their use as herbicides” (FMC CORPORATION, priority 2015, dated 2024).
Read-outs that look alike come from different tables or passages of the source.

Tests used:
Type in all cases: in vivo
Kochia (Kochia scoparia) [1] = experiment: Test A preemergence; conditions: Bassia scoparia, pre-emergence, 240 h; for pest or weed control at 125 g/ha: 125 g ai/ha, Preemergence, visual injury rating after approximately 10 d, read-out: Kochia plant response rating (0 to 100 scale, 0 is no effect, 100 is complete control); for pest or weed control at 500 g/ha: 500 g ai/ha, preemergence, visual injury rating about 10 d after treatment, 0 to 100 scale (0 no effect, 100 complete control), read-out: Kochia plant response rating
How it was run: (§1)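 Greenhouse, ~10 d after spray; visual injury vs untreated controls, 0 = no effect, 100 = complete control. Preemergence: directed soil spray over planted seeds. Postemergence: plants 2–10 cm, 1–2 leaf stage. Loam/sand blend. Compound in non-phytotoxic solvent with surfactant.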

[2] = test system: barnyardgrass (Echinochloa crus-galli); experiment: Test A preemergence; conditions: Echinochloa crus-galli, pre-emergence, 240 h; for pest or weed control at 125 g/ha: 125 g ai/ha, Preemergence, visual injury rating after approximately 10 d, read-out: Barnyardgrass plant response rating (0 to 100 scale, 0 is no effect, 100 is complete control); for pest or weed control at 500 g/ha: 500 g ai/ha, preemergence, visual injury rating about 10 d after treatment, 0 to 100 scale (0 no effect, 100 complete control), read-out: Barnyardgrass plant response rating
How it was run: as §1

[3] = test system: giant foxtail (Setaria faberii); experiment: Test A preemergence; conditions: Setaria faberi, pre-emergence, 240 h; for pest or weed control at 125 g/ha: 125 g ai/ha, Preemergence, visual injury rating after approximately 10 d, read-out: Foxtail, Giant plant response rating (0 to 100 scale, 0 is no effect, 100 is complete control); for pest or weed control at 500 g/ha: 500 g ai/ha, preemergence, visual injury rating about 10 d after treatment, 0 to 100 scale (0 no effect, 100 complete control), read-out: Foxtail, Giant plant response rating
How it was run: as §1

[4] = test system: pigweed (Amaranthus retroflexus); experiment: Test A preemergence; conditions: Amaranthus retroflexus, pre-emergence, 240 h; for pest or weed control at 125 g/ha: 125 g ai/ha, Preemergence, visual injury rating after approximately 10 d, read-out: Pigweed plant response rating (0 to 100 scale, 0 is no effect, 100 is complete control); for pest or weed control at 500 g/ha: 500 g ai/ha, preemergence, visual injury rating about 10 d after treatment, 0 to 100 scale (0 no effect, 100 complete control), read-out: Pigweed plant response rating
[5] = test system: ragweed (common ragweed, Ambrosia elatior); experiment: Test A preemergence; conditions: Ambrosia artemisiifolia, pre-emergence, 240 h; for pest or weed control at 125 g/ha: 125 g ai/ha, Preemergence, visual injury rating after approximately 10 d, read-out: Ragweed plant response rating (0 to 100 scale, 0 is no effect, 100 is complete control); for pest or weed control at 500 g/ha: 500 g ai/ha, preemergence, visual injury rating about 10 d after treatment, 0 to 100 scale (0 no effect, 100 complete control), read-out: Ragweed plant response rating
How it was run: as §1

[6] = test system: ryegrass, Italian (Italian ryegrass, Lolium multiflorum); experiment: Test A preemergence; conditions: Lolium multiflorum, pre-emergence, 240 h; for pest or weed control at 125 g/ha: 125 g ai/ha, Preemergence, visual injury rating after approximately 10 d, read-out: Ryegrass, Italian plant response rating (0 to 100 scale, 0 is no effect, 100 is complete control); for pest or weed control at 500 g/ha: 500 g ai/ha, preemergence, visual injury rating about 10 d after treatment, 0 to 100 scale (0 no effect, 100 complete control), read-out: Ryegrass, Italian plant response rating
How it was run: as §1

[7] = test system: Galium (catchweed bedstraw, Galium aparine); experiment: Test A postemergence; conditions: Galium, post-emergence, 240 h, 125 g ai/ha, Postemergence; visual injury after approximately 10 d; 0 to 100 scale where 0 is no effect and 100 is complete control; read-out: Plant response rating, Galium
How it was run: as §1

Kochia (Kochia scoparia) [8] = experiment: Test A postemergence; conditions: Bassia scoparia, post-emergence, 240 h, 125 g ai/ha, Postemergence; visual injury after approximately 10 d; 0 to 100 scale where 0 is no effect and 100 is complete control; read-out: Plant response rating, Kochia
How it was run: as §1

[9] = test system: barnyardgrass (Echinochloa crus-galli); experiment: Test A postemergence; conditions: Echinochloa crus-galli, post-emergence, 240 h, 125 g ai/ha, Postemergence; visual injury after approximately 10 d; 0 to 100 scale where 0 is no effect and 100 is complete control; read-out: Plant response rating, Barnyardgrass
How it was run: as §1

[10] = test system: blackgrass (Alopecurus myosuroides); experiment: Test A postemergence; conditions: Alopecurus myosuroides, post-emergence, 240 h, 125 g ai/ha, Postemergence; visual injury after approximately 10 d; 0 to 100 scale where 0 is no effect and 100 is complete control; read-out: Plant response rating, Blackgrass
How it was run: as §1

corn (Zea mays) = experiment: Test A postemergence; conditions: Zea mays, post-emergence, 240 h, 125 g ai/ha, Postemergence; visual injury after approximately 10 d; 0 to 100 scale where 0 is no effect and 100 is complete control
How it was run: as §1

[11] = test system: giant foxtail (Setaria faberii); experiment: Test A postemergence; conditions: Setaria faberi, post-emergence, 240 h, 125 g ai/ha, Postemergence; visual injury after approximately 10 d; 0 to 100 scale where 0 is no effect and 100 is complete control; read-out: Plant response rating, Foxtail, Giant
How it was run: as §1

[12] = test system: pigweed (Amaranthus retroflexus); experiment: Test A postemergence; conditions: Amaranthus retroflexus, post-emergence, 240 h, 125 g ai/ha, Postemergence; visual injury after approximately 10 d; 0 to 100 scale where 0 is no effect and 100 is complete control; read-out: Plant response rating, Pigweed
How it was run: as §1

[13] = test system: ragweed (common ragweed, Ambrosia elatior); experiment: Test A postemergence; conditions: Ambrosia artemisiifolia, post-emergence, 240 h, 125 g ai/ha, Postemergence; visual injury after approximately 10 d; 0 to 100 scale where 0 is no effect and 100 is complete control; read-out: Plant response rating, Ragweed
How it was run: as §1

[14] = test system: ryegrass, Italian (Italian ryegrass, Lolium multiflorum); experiment: Test A postemergence; conditions: Lolium multiflorum, post-emergence, 240 h, 125 g ai/ha, Postemergence; visual injury after approximately 10 d; 0 to 100 scale where 0 is no effect and 100 is complete control; read-out: Plant response rating, Ryegrass, Italian
How it was run: as §1

[15] = test system: wheat (Triticum aestivum); experiment: Test A postemergence; conditions: Triticum aestivum, post-emergence, 240 h, 125 g ai/ha, Postemergence; visual injury after approximately 10 d; 0 to 100 scale where 0 is no effect and 100 is complete control; read-out: Plant response rating, Wheat
How it was run: as §1

[16] = test system: barnyardgrass (Echinochloa crus-galli); experiment: Test B flooded paddy test; conditions: Echinochloa crus-galli, Flood, 250 g ai/ha; scale of 0 to 100 where 0 is no effect and 100 is complete control; read-out: Barnyardgrass plant response rating
How it was run: (§2)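 2-leaf plants; pots flooded 3 cm over soil; cpd added to paddy water; depth held; greenhouse 13–15 d; visual rating vs controls, 0 = no effect, 100 = complete control.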

[17] = test system: ducksalad (Heteranthera limosa); experiment: Test B flooded paddy test; conditions: Heteranthera limosa, Flood, 250 g ai/ha; scale of 0 to 100 where 0 is no effect and 100 is complete control; read-out: Ducksalad plant response rating
How it was run: as §2

rice (Oryra sativa) = experiment: Test B flooded paddy test; conditions: Oryza sativa, Flood, 250 g ai/ha; scale of 0 to 100 where 0 is no effect and 100 is complete control; read-out: Rice plant response rating
How it was run: as §2

[18] = test system: sedge, umbrella (small-flower umbrella sedge, Cyperus difformis); experiment: Test B flooded paddy test; conditions: Cyperus difformis, Flood, 250 g ai/ha, read-out: Sedge, Umbrella plant response rating
How it was run: as §2

SMILES	pest or weed control at 125 g/ha (Kochia (Kochia scoparia) [1]) [%]	pest or weed control at 500 g/ha (Kochia (Kochia scoparia) [1]) [%]	pest or weed control at 125 g/ha [2] [%]	pest or weed control at 500 g/ha [2] [%]	pest or weed control at 125 g/ha [3] [%]	pest or weed control at 500 g/ha [3] [%]	pest or weed control at 125 g/ha [4] [%]	pest or weed control at 500 g/ha [4] [%]	pest or weed control at 125 g/ha [5] [%]	pest or weed control at 500 g/ha [5] [%]	pest or weed control at 125 g/ha [6] [%]	pest or weed control at 500 g/ha [6] [%]	pest or weed control at 125 g/ha [7] [%]	pest or weed control at 125 g/ha (Kochia (Kochia scoparia) [8]) [%]	pest or weed control at 125 g/ha [9] [%]	pest or weed control at 125 g/ha [10] [%]	Corn plant response rating (crop injury, 0 = no effect, 100 = complete kill) at 125 g/ha (corn (Zea mays)) [%]	pest or weed control at 125 g/ha [11] [%]	pest or weed control at 125 g/ha [12] [%]	pest or weed control at 125 g/ha [13] [%]	also measured
COc1ccc([C@H]2CN(C)C(=O)[C@@H]2C(=O)Nc2ccccc2F)cc1C(F)(F)F [Compound 984]	90	90	100	100	100	100	40	60	0	30	70	30	30	50	100	30	80	90	0	0	pest or weed control at 125 g/ha [14]: 20%; plant injury at 125 g/ha [15]: 20%; pest or weed control at 250 g/ha [16]: 55%; pest or weed control at 250 g/ha [17]: 85%; pest or weed control at 250 g/ha (rice (Oryra sativa)): 15%; pest or weed control at 250 g/ha ([18]; scale of 0 to 100 where 0 is no effect and 100 is complete control): 0%
Cc1c(F)cccc1NC(=O)[C@H]1C(=O)N(C)C[C@@H]1c1cc(F)cc(C(F)(F)F)c1 [Compound 994]	40	60	90	100	100	100	30	70	0	0	70	100	50	40	100	60	70	90	0	20	pest or weed control at 125 g/ha [14]: 70%; plant injury at 125 g/ha [15]: 70%; pest or weed control at 250 g/ha [16]: 75%; pest or weed control at 250 g/ha [17]: 100%; pest or weed control at 250 g/ha (rice (Oryra sativa)): 20%; pest or weed control at 250 g/ha ([18]; 0 to 100 scale where 0 is no effect and 100 is complete control): 0%
